Data set [1] is described as follows: Hygroscopicity and deliquescence. The conditions noted are these: crystal. In kind it is physicochemical. The text has this: (§1) The physicochemical properties of neotrehalose were studied with a high-purity crystalline neotrehalose specimen prepared by the method in Experiment 2-1.
Data set [2] concerns β-glucosidase. Kind of data set: Action of β-glucosidase. It is filed as biochemical.
A short description of data set [3]: Heat of dissolution. It is filed as physicochemical. The conditions noted are these: crystal.
Excerpt: The physicochemical properties of lactoneotrehalose were studied with a high-purity crystalline lactoneotrehalose specimen prepared by the method in Experiment 1-1.
Data set [4] is described as follows: Acidity of aqueous solution. In kind it is physicochemical.
Excerpt: as §1

Data set [5] deals with β-galactosidase. Briefly: Action of β-galactosidase. In kind it is biochemical.
Data set [6] can be described thus: Solubility in solvents. In kind it is physicochemical.
Excerpt: as §1

Data set [7] is described as follows: Digestion test: oral load test, blood sugar and insulin levels. In kind it is in vivo. The settings on record: healthy volunteers. The text has this: In accordance with the method described in H. Atsuji et al., Journal of Clinical Nutrition, Vol.41, Vol.2, pp.200-208 (1972), the load test by orally-administering to healthy volunteers a crystalline neotrehalose specimen prepared by the method in Experiment 2-1 was done, and their blood was sampled at prescribed time intervals and subjected to the measurements of the blood sugar and insulin levels. As control, glucose was used.

Data set [8] concerns trehalase. Kind of data set: Hydrolysis by trehalase. In kind it is biochemical.
Excerpt: as §1

Data set [9] is described as follows: Solubility in water at 25° C. In kind it is physicochemical. The conditions noted are these: crystal in the form of anhydride, in 100 g water at 25° C.
Excerpt: as §1

Data set [10] deals with 7 week-old dd mice. Briefly: Acute toxicity, oral, mice. It is filed as in vivo.
Excerpt: A crystalline neotrehalose specimen, prepared by the method in Experiment 2-1, was orally administered to 7 week-old dd mice for acute toxicity test.
Data set [11] concerns α-glucosidase. Kind of data set: Action of α-glucosidase. It is filed as biochemical.
Excerpt: as §1

On to `OC[C@H]1O[C@@H](O[C@H]2[C@H](O)[C@@H](O)[C@H](O[C@H]3O[C@H](CO)[C@@H](O)[C@H](O)[C@H]3O)O[C@@H]2CO)[C@H](O)[C@@H](O)[C@H]1O` [lactoneotrehalose, O-β-D-galactopyranosyl-(1→4)-O-β-D-glucopyranosyl α-D-glucopyranoside], for which the hygroscopicity and deliquescence result in [1] was “Free of hygroscopicity and deliquescence”. In addition, the “products formed by the action of β-glucosidase” value in data set [2] was “D-glucose and lactose are formed”. In addition, in data set [3], the Heat of dissolution was 20.0 cal/g. In addition, the “acidity of an aqueous solution of the crystal” value in [4] is recorded as “neutral or slight acidity”. Also, the “products formed by the action of β-galactosidase” value in [5] is “D-galactose and neotrehalose are formed”.

For `OC[C@H]1O[C@@H](O[C@H]2O[C@H](CO)[C@@H](O)[C@H](O)[C@H]2O)[C@H](O)[C@@H](O)[C@@H]1O` [neotrehalose, O-α-D-glucopyranosyl β-D-glucopyranoside], in [1], the hygroscopicity and deliquescence result is “Free of hygroscopicity and deliquescence”. Moreover, the Solubility in solvents entry is on record as “Readily soluble” in data set [6] (0.1N hydrochloric acid); “Readily soluble” in data set [6] (0.1N sodium hydroxide); “insoluble” in data set [6] (chloroform); “scarcely soluble” in data set [6] (ethanol); “insoluble” in data set [6] (ethyl acetate); “scarcely soluble” in [6] (methanol). The Solubility in solvents result in [6] (water) is recorded as “Readily soluble”. Further, in [4], the “acidity of an aqueous solution of the crystal” value is given as “neutral or slight acidity”. The “digestion, absorption, metabolism and utilization” value in data set [7] is “readily digested, absorbed, metabolized and utilized into energy”. For the same molecule, in data set [7], the “time of maximum level of blood sugar after the administration” value lay in the range of 0.5 to 1 h. Besides, in data set [7], the “time of maximum level of insulin after the administration” value lay in the range of 0.5 to 1 h. The “blood sugar and insulin behaviour compared with glucose” value in [7] (control glucose) was “behaved similarly as to glucose”. The hydrolysis by trehalase entry in data set [8] is recorded as “not hydrolyzed by trehalase”. Moreover, the Solubility result in data set [9] is “Fifty-five”. In addition, the toxicity entry in data set [10] is recorded as “extremely low”. Besides, the animal death result in data set [10] (up to 5 g of the specimen, higher dose was difficult to do) was “no animal death was noted”. Moreover, the “product formed by the action of α-glucosidase” value in [11] is “D-glucose is formed”.

The values are drawn from US5714476A, “Process for preparing compositions containing neotrehalose” (Kabushiki Kaisha Hayashibara Seibutsu Kagaku Kenkyujo, priority 1990, dated 1998).
